Nine molecules from EP4592286A1, “MACROCYCLIC NITROGEN-CONTAINING CROWN ETHER COMPOUND AND USE THEREOF AS PROTEIN KINASE INHIBITOR” (Artivila Biopharma, priority 2022, dated 2024) can be followed below.

Common to all, as to format: biochemical
The target in one assay is TYK2 (Homo sapiens, UniProt P29597). The experiment in a line: experiment of inhibiting kinase activity, TYK2. Conditions: read-out: inhibition rate TYK2; for inhibition at 0.1 µM: at 100 nM; for inhibition at 0.01 µM: at 10 nM. As for the experimental part:
(§1) The inhibition rates of tested compounds on JAK1, JAK2, JAK3, TYK2, CDK7, CDK9, EGFR (T790M) and LRRK2 kinases were measured. The test concentrations of the compounds were 10 nM and 100 nM, and the detection was performed by replicate wells. Alternatively, compounds were 3-fold serial diluted from 10 µM for 10 concentrations in replicate wells.

In the next assay the target is JAK2 (Homo sapiens, UniProt O60674). Briefly: experiment of inhibiting kinase activity (Caliper mobility shift assay), JAK2. Particulars: for inhibition at 0.1 µM: at 100 nM; for inhibition at 0.1 µM / inhibition at 0.01 µM: read-out: inhibition rate JAK2; for inhibition at 0.01 µM: at 10 nM; for IC50: kinase activity assay, Table 3. A digest of the protocol: (§2)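 Kinase preincubated 10 min at room temperature with compound, then reaction started with ATP plus substrate; substrate conversion read by Caliper mobility shift after stop solution. Compounds tested at 10 and 100 nM or as 10-point 3-fold dilutions from 10 µM; IC50 from variable-slope fit of % inhibition.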

The next assay has as its target LRRK2 (Homo sapiens, UniProt Q5S007). The experiment in a line: experiment of inhibiting kinase activity, LRRK2. Conditions: for inhibition at 0.1 µM: at 100 nM; for inhibition at 0.1 µM / inhibition at 0.01 µM: read-out: inhibition rate LRRK2; for inhibition at 0.01 µM: at 10 nM; for IC50: kinase activity assay, Table 3. As for the experimental part:
as §1

A further assay has as its target CDK7 (Homo sapiens, UniProt P50613). The experiment in a line: experiment of inhibiting kinase activity (Caliper mobility shift assay), CDK7. Conditions: for inhibition at 0.1 µM: at 100 nM, read-out: inhibition rate CDK7; for IC50: kinase activity assay, Table 3. How it is done:
as §1
(§3) The inhibitory effects of the compounds on JAK1, JAK2, JAK3, CDK7 and CDK9 kinases were detected by the method of Caliper mobility shift assay. 250 nL of the compound at 100-fold final concentration was transferred to a destination plate 384-well-plate by using a liquid handler Echo 550. A kinase solution at 2.5-fold final concentration was prepared with 1×kinase buffer. 10 µL of the kinase solution with 2.5-fold final concentration was added to compound wells and positive control wells; and 10 µL of 1×kinase buffer was added to negative control wells. The mixture was centrifuged at 1000 rpm for 30 seconds and then incubated at room temperature for 10 minutes. A mixed solution of ATP and kinase substrate at 5/3-fold final concentration was prepared with 1×kinase buffer, and 15 µL of the mixed solution of ATP and substrate at 5/3-fold final concentration was added to start the reaction. The 384-well plate was centrifuged at 1000 rpm for 30 seconds, shaked and mixed evenly, then incubated at room temperature for a corresponding time. 30 µL of stop solution was added to stop the kinase reaction, the mixture was centrifuged at 1000 rpm for 30 seconds, and shaked and mixed evenly. The conversion rate was read by Caliper EZ Reader. The conversion inhibition rate%=(average positive control conversion rate%-sample conversion rate%)/(average positive control conversion rate%-average negative control conversion rate%). Where negative control wells represent the conversion readings of the background well of kinase buffer; and positive control wells represent the conversion readings of wells without compound inhibition. With the log value of concentration as the x axis and the percentage inhibition rate as the y axis, the dose-response curve was fitted by the log (inhibitor) vs. response-variable slope of the analyzing softwar GraphPad Prism 5, and the IC50 values of each compound on enzyme activity were obtained. Calculation formula is as follows: y=Bottom+(Top-Bottom)/(1+10^((LogIC50-x)×hillslope)), where x is logarithm of inhibitor concentration; and Y is % inhibition rate.

The next assay addresses T1, JAK3 (Homo sapiens, UniProt P52333).
T1 sequence (P52333 1-1124): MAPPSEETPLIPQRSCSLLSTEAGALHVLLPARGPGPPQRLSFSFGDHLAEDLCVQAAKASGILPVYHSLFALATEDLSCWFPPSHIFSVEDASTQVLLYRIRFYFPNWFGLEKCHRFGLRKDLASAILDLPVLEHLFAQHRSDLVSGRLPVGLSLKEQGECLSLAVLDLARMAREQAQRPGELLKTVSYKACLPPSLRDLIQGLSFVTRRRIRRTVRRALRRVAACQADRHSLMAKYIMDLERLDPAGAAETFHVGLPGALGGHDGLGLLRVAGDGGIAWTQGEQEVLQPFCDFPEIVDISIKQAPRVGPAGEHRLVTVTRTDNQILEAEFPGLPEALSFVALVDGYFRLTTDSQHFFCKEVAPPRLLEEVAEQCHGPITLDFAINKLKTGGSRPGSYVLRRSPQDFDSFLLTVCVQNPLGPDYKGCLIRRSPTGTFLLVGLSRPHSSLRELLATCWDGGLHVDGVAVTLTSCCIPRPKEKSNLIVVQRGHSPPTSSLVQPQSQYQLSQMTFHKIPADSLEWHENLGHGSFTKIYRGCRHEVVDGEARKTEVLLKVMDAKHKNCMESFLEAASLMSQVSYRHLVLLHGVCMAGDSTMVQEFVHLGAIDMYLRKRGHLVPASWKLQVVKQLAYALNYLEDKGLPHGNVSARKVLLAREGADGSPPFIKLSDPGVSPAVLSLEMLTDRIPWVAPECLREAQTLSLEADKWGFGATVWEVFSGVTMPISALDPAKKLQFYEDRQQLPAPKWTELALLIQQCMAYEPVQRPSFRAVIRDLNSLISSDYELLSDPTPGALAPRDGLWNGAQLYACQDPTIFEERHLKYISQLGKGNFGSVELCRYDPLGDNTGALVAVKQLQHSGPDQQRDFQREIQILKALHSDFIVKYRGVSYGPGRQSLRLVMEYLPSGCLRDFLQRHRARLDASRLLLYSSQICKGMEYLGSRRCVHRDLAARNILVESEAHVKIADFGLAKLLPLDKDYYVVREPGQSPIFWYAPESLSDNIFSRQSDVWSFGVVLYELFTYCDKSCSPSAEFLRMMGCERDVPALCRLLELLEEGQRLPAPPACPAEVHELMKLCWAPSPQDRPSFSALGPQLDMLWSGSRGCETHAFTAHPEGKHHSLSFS
The experiment in a line: experiment of inhibiting kinase activity (Caliper mobility shift assay), JAK3. Particulars: for inhibition at 0.1 µM: at 100 nM; for inhibition at 0.1 µM / inhibition at 0.01 µM: read-out: inhibition rate JAK3; for IC50: kinase activity assay, Table 3; for inhibition at 0.01 µM: at 10 nM. A digest of the protocol: as §2

The target in the next assay is CDK9 (Homo sapiens, UniProt P50750). The experiment in a line: experiment of inhibiting kinase activity (Caliper mobility shift assay), CDK9. As for the experimental part:
as §1, §3

For another assay, the target named is JAK1 (Homo sapiens, UniProt P23458). The experiment in a line: experiment of inhibiting kinase activity (Caliper mobility shift assay), JAK1. Conditions: for inhibition at 0.1 µM: at 100 nM, read-out: inhibition rate JAK1. A digest of the protocol: as §2

Each structure is given as a SMILES string.

Chain of LRRK2 (Q5S007 whole entry): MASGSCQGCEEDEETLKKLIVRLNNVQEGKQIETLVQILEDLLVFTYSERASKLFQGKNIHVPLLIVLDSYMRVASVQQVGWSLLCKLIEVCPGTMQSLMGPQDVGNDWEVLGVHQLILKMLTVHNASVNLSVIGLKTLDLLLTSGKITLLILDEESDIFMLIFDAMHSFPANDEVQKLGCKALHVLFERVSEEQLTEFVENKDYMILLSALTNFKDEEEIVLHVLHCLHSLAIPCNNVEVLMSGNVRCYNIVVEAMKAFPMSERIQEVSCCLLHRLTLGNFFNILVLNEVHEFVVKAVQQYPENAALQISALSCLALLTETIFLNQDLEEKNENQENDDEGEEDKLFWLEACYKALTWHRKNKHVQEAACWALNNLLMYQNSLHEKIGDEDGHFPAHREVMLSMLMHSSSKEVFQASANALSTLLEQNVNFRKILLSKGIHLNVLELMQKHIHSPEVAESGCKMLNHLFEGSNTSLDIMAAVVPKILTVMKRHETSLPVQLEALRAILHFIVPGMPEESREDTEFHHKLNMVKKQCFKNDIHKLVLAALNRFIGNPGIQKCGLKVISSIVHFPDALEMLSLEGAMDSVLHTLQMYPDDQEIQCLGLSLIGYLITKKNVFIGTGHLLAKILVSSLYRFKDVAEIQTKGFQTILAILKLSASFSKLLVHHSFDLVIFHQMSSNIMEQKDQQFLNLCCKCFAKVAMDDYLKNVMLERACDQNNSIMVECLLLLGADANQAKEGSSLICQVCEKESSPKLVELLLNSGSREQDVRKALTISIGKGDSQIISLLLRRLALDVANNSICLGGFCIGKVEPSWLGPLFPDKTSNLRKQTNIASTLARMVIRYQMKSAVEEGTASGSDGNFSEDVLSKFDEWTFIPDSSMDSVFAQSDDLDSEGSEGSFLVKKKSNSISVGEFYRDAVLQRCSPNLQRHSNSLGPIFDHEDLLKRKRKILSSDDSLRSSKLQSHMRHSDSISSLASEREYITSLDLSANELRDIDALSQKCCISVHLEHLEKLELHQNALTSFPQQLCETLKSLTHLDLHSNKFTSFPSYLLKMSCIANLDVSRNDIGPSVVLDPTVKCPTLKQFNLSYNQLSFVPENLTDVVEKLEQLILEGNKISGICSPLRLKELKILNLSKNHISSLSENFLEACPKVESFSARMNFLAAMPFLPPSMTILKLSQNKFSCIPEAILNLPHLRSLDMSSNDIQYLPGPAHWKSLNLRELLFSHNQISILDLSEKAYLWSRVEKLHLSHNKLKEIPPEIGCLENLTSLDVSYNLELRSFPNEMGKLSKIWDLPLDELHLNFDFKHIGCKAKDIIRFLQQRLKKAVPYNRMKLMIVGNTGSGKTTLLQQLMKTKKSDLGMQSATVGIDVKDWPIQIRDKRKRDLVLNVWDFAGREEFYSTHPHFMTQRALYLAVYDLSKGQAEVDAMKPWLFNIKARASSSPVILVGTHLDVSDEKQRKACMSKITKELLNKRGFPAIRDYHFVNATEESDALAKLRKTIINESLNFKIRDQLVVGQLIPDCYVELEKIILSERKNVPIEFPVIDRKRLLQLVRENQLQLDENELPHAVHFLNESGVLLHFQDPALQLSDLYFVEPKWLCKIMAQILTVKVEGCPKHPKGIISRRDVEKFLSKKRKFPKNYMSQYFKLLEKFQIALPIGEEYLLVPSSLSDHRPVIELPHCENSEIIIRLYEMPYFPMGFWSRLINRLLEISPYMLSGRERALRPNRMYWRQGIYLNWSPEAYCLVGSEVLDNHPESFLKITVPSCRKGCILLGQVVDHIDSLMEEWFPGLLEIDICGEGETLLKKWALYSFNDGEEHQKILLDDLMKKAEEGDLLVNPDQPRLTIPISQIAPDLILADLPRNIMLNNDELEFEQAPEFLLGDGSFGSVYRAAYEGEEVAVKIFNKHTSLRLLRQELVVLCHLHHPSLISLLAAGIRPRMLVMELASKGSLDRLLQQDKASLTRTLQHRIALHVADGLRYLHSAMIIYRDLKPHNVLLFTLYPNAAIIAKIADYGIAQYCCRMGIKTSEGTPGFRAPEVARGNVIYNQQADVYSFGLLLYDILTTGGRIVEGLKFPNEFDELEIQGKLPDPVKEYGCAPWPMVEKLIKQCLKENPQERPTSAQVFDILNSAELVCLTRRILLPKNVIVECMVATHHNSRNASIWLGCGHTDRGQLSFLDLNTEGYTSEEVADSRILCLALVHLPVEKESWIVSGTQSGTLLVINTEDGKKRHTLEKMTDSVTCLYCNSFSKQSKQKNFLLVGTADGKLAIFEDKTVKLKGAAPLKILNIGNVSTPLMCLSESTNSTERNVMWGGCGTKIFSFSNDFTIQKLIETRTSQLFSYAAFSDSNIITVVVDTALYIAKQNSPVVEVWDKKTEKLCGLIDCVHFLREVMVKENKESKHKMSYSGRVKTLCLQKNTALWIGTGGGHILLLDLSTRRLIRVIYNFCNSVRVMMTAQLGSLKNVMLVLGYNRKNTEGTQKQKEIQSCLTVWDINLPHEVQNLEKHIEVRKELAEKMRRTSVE
Chain of JAK1 (P23458 whole entry): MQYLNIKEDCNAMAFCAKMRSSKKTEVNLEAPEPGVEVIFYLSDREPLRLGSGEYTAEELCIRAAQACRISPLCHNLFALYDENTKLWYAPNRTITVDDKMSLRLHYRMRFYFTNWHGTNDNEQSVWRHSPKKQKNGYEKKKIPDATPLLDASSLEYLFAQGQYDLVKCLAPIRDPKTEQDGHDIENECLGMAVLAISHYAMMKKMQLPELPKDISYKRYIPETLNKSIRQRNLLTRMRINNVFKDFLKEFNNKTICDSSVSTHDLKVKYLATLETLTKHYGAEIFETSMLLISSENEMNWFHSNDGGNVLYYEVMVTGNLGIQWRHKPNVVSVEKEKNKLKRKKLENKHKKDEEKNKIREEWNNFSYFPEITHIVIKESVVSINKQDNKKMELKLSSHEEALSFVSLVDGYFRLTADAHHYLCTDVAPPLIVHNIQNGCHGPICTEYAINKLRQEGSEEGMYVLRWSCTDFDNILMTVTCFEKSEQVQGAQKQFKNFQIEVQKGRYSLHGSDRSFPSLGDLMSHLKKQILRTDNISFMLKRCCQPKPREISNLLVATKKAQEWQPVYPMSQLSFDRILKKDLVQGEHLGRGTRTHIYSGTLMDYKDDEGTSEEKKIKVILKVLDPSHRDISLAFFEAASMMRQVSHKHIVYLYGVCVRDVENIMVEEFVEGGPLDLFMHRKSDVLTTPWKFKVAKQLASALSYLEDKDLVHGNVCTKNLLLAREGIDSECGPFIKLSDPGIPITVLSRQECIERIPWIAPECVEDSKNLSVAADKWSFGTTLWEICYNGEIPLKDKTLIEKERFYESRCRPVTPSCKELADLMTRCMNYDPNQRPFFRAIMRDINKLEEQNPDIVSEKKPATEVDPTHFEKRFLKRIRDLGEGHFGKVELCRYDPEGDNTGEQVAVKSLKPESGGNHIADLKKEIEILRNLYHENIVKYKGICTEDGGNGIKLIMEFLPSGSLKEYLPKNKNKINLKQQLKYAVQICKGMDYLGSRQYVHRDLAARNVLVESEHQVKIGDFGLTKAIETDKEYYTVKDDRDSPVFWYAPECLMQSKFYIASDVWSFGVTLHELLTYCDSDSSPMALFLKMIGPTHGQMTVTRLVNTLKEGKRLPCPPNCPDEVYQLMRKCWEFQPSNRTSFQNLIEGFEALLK
Chain of JAK2 (O60674 whole entry): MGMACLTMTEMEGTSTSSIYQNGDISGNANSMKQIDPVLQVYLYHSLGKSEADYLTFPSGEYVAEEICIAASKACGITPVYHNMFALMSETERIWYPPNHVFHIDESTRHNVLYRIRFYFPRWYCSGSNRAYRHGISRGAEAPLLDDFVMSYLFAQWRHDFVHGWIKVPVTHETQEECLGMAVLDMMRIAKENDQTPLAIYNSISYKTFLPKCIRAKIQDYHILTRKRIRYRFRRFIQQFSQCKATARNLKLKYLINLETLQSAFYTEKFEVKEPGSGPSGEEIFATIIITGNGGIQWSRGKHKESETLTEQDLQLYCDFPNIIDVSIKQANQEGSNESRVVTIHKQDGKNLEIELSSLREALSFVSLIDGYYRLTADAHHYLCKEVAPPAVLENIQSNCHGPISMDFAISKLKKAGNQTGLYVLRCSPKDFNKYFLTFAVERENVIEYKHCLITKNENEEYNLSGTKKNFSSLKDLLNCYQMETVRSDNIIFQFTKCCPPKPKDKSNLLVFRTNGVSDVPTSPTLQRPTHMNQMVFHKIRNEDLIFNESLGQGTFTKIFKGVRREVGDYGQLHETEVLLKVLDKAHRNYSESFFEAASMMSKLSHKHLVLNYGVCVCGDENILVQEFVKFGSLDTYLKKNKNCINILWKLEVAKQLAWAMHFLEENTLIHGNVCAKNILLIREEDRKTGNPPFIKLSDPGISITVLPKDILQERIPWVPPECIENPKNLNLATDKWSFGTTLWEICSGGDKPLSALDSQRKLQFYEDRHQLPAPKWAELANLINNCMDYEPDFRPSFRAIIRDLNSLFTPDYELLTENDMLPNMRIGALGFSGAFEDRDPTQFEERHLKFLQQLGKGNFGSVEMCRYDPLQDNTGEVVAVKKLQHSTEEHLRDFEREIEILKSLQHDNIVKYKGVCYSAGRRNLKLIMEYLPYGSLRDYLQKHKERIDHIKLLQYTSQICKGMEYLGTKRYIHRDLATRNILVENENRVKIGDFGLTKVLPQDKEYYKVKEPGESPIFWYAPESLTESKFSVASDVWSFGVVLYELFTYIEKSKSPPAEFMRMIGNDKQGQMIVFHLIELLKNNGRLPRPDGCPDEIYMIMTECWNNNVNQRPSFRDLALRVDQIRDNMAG

The inhibition is the percentage by which the read-out fell short of the control. For `CN1CCOCCOc2cc(Nc3nc(Nc4cccc(S(=O)(=O)NC(C)(C)C)c4)c4cc[nH]c4n3)ccc2OCC1` [Example 20, N-(tert-butyl)-3-((2-((7-methyl-2,3,6,7,8,9-hexahydro-5H-benzo[b][1,4,7]trioxa[10]azacyclododecan-13-yl)amino)-7H-pyrrolo[2,3-d]pyrimidin-4-yl)amino)benzenesulfonamide], the inhibition at 0.1 µM at TYK2 is 25 to 39%; on JAK2 it was more than 80%; at LRRK2, 40 to 79%; at CDK7 it was 40 to 79%; at JAK3, 40 to 79%.

For orientation: IC50 means the concentration that gives 50% inhibition. For `CN1CCOc2ccc(Nc3nc(-c4ccc(C(=O)NCC#N)cc4)c4cc[nH]c4n3)cc2OCC1` [Example 2], the inhibition at 0.1 µM on TYK2 was more than 80%; on CDK7, 25 to 39%; at JAK3, more than 80%. The IC50 on JAK3 is less than 50 nM.

For `COc1ccc(F)cc1-c1nc(Nc2ccc3c(c2)OCCOCCN(C)CCO3)ncc1F` [Example 115, N-(5-fluoro-4-(5-fluoro-2-methoxyphenyl)pyrimidin-2-yl)-7-methyl-2,3,6,7,8,9-hexahydro-5H-benzo[b][1,4,7]trioxa[10]azacyclododecan-13-amine], the inhibition at 0.01 µM on CDK9 (at 10 nM, read-out: inhibition rate CDK9) was in the range of 40 to 79%. Besides, the half-inhibitory concentration (IC50) at CDK9 (kinase activity assay, Table 3) was less than 50 nM.

As for `CN1CCOCCOc2cc(Nc3nc(-c4cn(C)c5ccccc45)c4cc[nH]c4n3)ccc2OCC1` [Example 23, 7-methyl-N-(4-(1-methyl-1H-indol-3-yl)-7H-pyrrolo[2,3-d]pyrimidin-2-yl)-2,3,6,7,8,9-hexahydro-5H-benzo[b][1,4,7]trioxa[10]azacyclododecan-13-amine], the inhibition at 0.1 µM at TYK2 is 25 to 39%; on JAK2 it was more than 80%; at LRRK2 it was 40 to 79%; at CDK7, 40 to 79%; on JAK3, 40 to 79%.

Consider `CC(C)S(=O)(=O)c1ccccc1Nc1nc(Nc2ccc3c(c2)OCCN(C)CCO3)nc2[nH]ccc12` [Example 35, N^4-(2-(isopropylsulfonyl)phenyl)-N^2-(4-methyl-3,4,5,6-tetrahydro-2H-benzo[b][1,4, 7]dioxazolin-9-yl)-7H-pyrrolo[2,3-d]pyrimidin-2,4-diamine], for which the inhibition at 0.1 µM is 40 to 79% on TYK2; more than 80% at JAK2; more than 80% at LRRK2; 40 to 79% on JAK1; 40 to 79% on CDK7; more than 80% at JAK3. Moreover, the values for the inhibition at 0.01 µM on JAK2, at LRRK2 and at JAK3 were 40 to 79%, more than 80% and 25 to 39%, respectively. For the same molecule, the IC50 on JAK2 is less than 50 nM; at LRRK2 it was less than 50 nM; at JAK1 (kinase activity assay, Table 3), 50 to 200 nM; on CDK7, less than 50 nM; on JAK3 it was less than 50 nM.

Take `CN1CCOCCOc2ccc(Nc3nc(Nc4cccc(S(=O)(=O)NC(C)(C)C)c4)c4cc[nH]c4n3)cc2OCC1` [Example 19, N-(tert-butyl)-3-((2-((7-methyl-2,3,6,7,8,9-hexahydro-5H-benzo[b][1,4,7]trioxa[10]azacyclododecan-12-yl)amino)-7H-pyrrolo[2,3-d]pyrimidin-4-yl)amino)benzenesulfonamide]: the inhibition at 0.1 µM on TYK2 is 25 to 39%; at JAK2 it was more than 80%; at LRRK2 it was more than 80%; at CDK7 it was 40 to 79%; on JAK3, 40 to 79%. Further, the inhibition at 0.01 µM on JAK2 and at LRRK2 was 40 to 79% throughout. Moreover, the IC50 at JAK2, at LRRK2 and at CDK7 was less than 50 nM in each case.

`CN1CCOc2ccc(Nc3ncc(F)c(-c4cnn(C(CC#N)C5CCCC5)c4)n3)cc2OCC1` (stereo not shown) [Example 25]: the inhibition at 0.01 µM at TYK2 and on JAK2 was 40 to 79% in each case. In addition, the inhibition at 0.1 µM at TYK2 was more than 80%; on JAK2 it was more than 80%; on LRRK2 it was 40 to 79%; on JAK1, 40 to 79%; at CDK7, 40 to 79%; on JAK3 it was 40 to 79%. The IC50 at JAK2 was less than 50 nM; against LRRK2 it was 50 to 200 nM; on JAK3, less than 50 nM.

Take `CCS(=O)(=O)N1CC(CC#N)(n2cc(-c3nc(Nc4ccc5c(c4)OCCN(C)CCO5)ncc3F)cn2)C1` [Example 37, 2-(1-(ethylsulfonyl)-3-(4-(5-fluoro-2-((4-methyl-3,4,5,6-tetrahydro-2H-benzo[b] [1,4,7]dioxazolin-9-yl)amino)pyrimidin-4-yl)-1H-pyrazol-1-yl)azetidin-3-yl)acetonitrile]: the inhibition at 0.01 µM on TYK2, on JAK2 and at JAK3 was 40 to 79% throughout. Moreover, the inhibition at 0.1 µM on TYK2 was more than 80%; at JAK2, more than 80%; on LRRK2, 25 to 39%; on JAK1, 40 to 79%; on CDK7 it was 25 to 39%; on JAK3 it was more than 80%. For the same molecule, the IC50 on JAK2 and on JAK3 was less than 50 nM throughout.

Turning to `CC(C)S(=O)(=O)c1ccccc1Nc1nc(Nc2ccc3c(c2)OCCOCCN(C)CCO3)nc2[nH]ncc12` [Example 11, N^4-(2-(isopropylsulfonyl)phenyl)-N^6-(7-methyl-2,3,6,7,8,9-hexahydro-5H-benzo[b][1,4, 7]trioxa[10]azacyclododecan-13-yl)-1H-pyrazolo[3,4-d]pyrimidin-4,6-diamine], the inhibition at 0.01 µM at TYK2 lay in the range of 25 to 39%; at JAK2 it was 40 to 79%; on JAK3 it was 40 to 79%. Further, the inhibition at 0.1 µM on TYK2 is more than 80%; on JAK2, more than 80%; at LRRK2, 40 to 79%; at CDK7, 40 to 79%; at JAK3, more than 80%.
